Measurements from the NIST ThermoML archive (doi:10.1016/j.jct.2016.01.012).
± gives the expanded uncertainty stated by the source.

Assays:
[1] = xn = mol fraction of the nth substance listed; settings: 100 kPa, Liquid; for viscosity: Falling or rolling sphere viscometry; for mass density: Vibrating tube method; for electrical conductivity: Direct current cell with electrodes
[2] = refractive index (Na D-line) (dimensionless); xn = mol fraction of the nth substance listed; settings: 298.15 K, 100 kPa, Liquid, Standard Abbe refractometry

CN(C)C(=[NH2+])N(C)C.c1c[n-]cn1 [1,1,3,3-tetramethylguanidinium imidazol-1-ide] + O
[1]
Settings	electrical conductivity [S/m]	mass density [kg/m3]	viscosity [mPa·s]
293.15 K, x1 = 0.0511	–	1023.04 ± 4.1	3.157 ± 0.14
293.15 K, x1 = 0.0991	–	1024.53 ± 4.1	5.561 ± 0.23
293.15 K, x1 = 0.207	–	1025.54 ± 4.1	10.23 ± 0.42
293.15 K, x1 = 0.3005	–	1019.92 ± 4.1	14.29 ± 0.59
293.15 K, x1 = 0.3834	–	1015.77 ± 4.1	15.79 ± 0.65
293.15 K, x1 = 0.4978	–	1010.24 ± 4	16.03 ± 0.66
293.15 K, x1 = 0.6356	–	1005.44 ± 4	14.5 ± 0.6
293.15 K, x1 = 0.8019	–	1001.45 ± 4	12.12 ± 0.51
293.15 K, x1 = 0.8984	–	999.17 ± 4	10.19 ± 0.43
293.15 K, x1 = 1	–	997.25 ± 4.1	8.952 ± 0.38
298.15 K, x1 = 0.002	1.524 ± 0.015	–	–
298.15 K, x1 = 0.003	1.88 ± 0.019	–	–
298.15 K, x1 = 0.0039	2.47 ± 0.03	–	–
298.15 K, x1 = 0.005	2.88 ± 0.03	–	–
298.15 K, x1 = 0.006	3.19 ± 0.03	–	–
298.15 K, x1 = 0.008	3.36 ± 0.03	–	–
298.15 K, x1 = 0.01	3.67 ± 0.04	–	–
298.15 K, x1 = 0.0149	3.96 ± 0.04	–	–
298.15 K, x1 = 0.0199	3.93 ± 0.04	–	–
298.15 K, x1 = 0.0299	3.72 ± 0.04	–	–
298.15 K, x1 = 0.0398	3.22 ± 0.03	–	–
298.15 K, x1 = 0.0499	2.7 ± 0.03	–	–
298.15 K, x1 = 0.0511	–	1019.97 ± 4.1	2.519 ± 0.11
298.15 K, x1 = 0.0599	2.31 ± 0.02	–	–
298.15 K, x1 = 0.0699	1.97 ± 0.02	–	–
298.15 K, x1 = 0.0799	1.711 ± 0.017	–	–
298.15 K, x1 = 0.0893	1.517 ± 0.015	–	–
298.15 K, x1 = 0.0991	–	1020.57 ± 4.1	4.311 ± 0.18
298.15 K, x1 = 0.0996	1.31 ± 0.013	–	–
298.15 K, x1 = 0.1495	0.767 ± 0.008	–	–
298.15 K, x1 = 0.1994	0.53 ± 0.005	–	–
298.15 K, x1 = 0.207	–	1021.21 ± 4.1	7.645 ± 0.32
298.15 K, x1 = 0.3005	–	1015.51 ± 4.1	11.07 ± 0.46
298.15 K, x1 = 0.3504	0.272 ± 0.003	–	–
298.15 K, x1 = 0.3834	–	1011.35 ± 4	12.14 ± 0.5
298.15 K, x1 = 0.4978	–	1005.81 ± 4	12.35 ± 0.51
298.15 K, x1 = 0.4989	0.215 ± 0.002	–	–
298.15 K, x1 = 0.6356	–	1001 ± 4	11.28 ± 0.47
298.15 K, x1 = 0.6512	0.195 ± 0.002	–	–
298.15 K, x1 = 0.8019	–	997.07 ± 4	9.561 ± 0.4
298.15 K, x1 = 0.8447	0.205 ± 0.002	–	–
298.15 K, x1 = 0.8984	–	994.72 ± 4	8.186 ± 0.34
298.15 K, x1 = 1	0.218 ± 0.002	992.8 ± 4	7.287 ± 0.31
303.15 K, x1 = 0.0511	–	1016.67 ± 4.1	2.148 ± 0.092
303.15 K, x1 = 0.0991	–	1016.58 ± 4.1	3.601 ± 0.15
303.15 K, x1 = 0.207	–	1016.83 ± 4.1	6.045 ± 0.25
303.15 K, x1 = 0.3005	–	1011.06 ± 4	8.853 ± 0.36
303.15 K, x1 = 0.3834	–	1006.9 ± 4	9.629 ± 0.4
303.15 K, x1 = 0.4978	–	1001.35 ± 4	9.809 ± 0.4
303.15 K, x1 = 0.6356	–	996.54 ± 4	9.023 ± 0.37
303.15 K, x1 = 0.8019	–	992.72 ± 4	7.768 ± 0.32
303.15 K, x1 = 0.8984	–	990.26 ± 4	6.72 ± 0.28
303.15 K, x1 = 1	–	988.35 ± 4	6.044 ± 0.25
308.15 K, x1 = 0.0511	–	1013.28 ± 4.1	1.854 ± 0.079
308.15 K, x1 = 0.0991	–	1012.53 ± 4	3.021 ± 0.12
308.15 K, x1 = 0.207	–	1012.42 ± 4	4.956 ± 0.2
308.15 K, x1 = 0.3005	–	1006.59 ± 4	7.201 ± 0.3
308.15 K, x1 = 0.3834	–	1002.43 ± 4	7.806 ± 0.32
308.15 K, x1 = 0.4978	–	996.88 ± 4	7.952 ± 0.33
308.15 K, x1 = 0.6356	–	992.07 ± 4	7.354 ± 0.3
308.15 K, x1 = 0.8019	–	988.36 ± 4	6.42 ± 0.27
308.15 K, x1 = 0.8984	–	985.81 ± 4	5.611 ± 0.23
308.15 K, x1 = 1	–	983.9 ± 4	5.097 ± 0.21
313.15 K, x1 = 0.0511	–	1009.78 ± 4	1.617 ± 0.069
313.15 K, x1 = 0.0991	–	1008.4 ± 4	2.592 ± 0.11
313.15 K, x1 = 0.207	–	1007.97 ± 4	4.126 ± 0.17
313.15 K, x1 = 0.3005	–	1002.09 ± 4	5.934 ± 0.24
313.15 K, x1 = 0.3834	–	997.94 ± 4	6.428 ± 0.26
313.15 K, x1 = 0.4978	–	992.4 ± 4	6.542 ± 0.27
313.15 K, x1 = 0.6356	–	987.61 ± 4	6.07 ± 0.25
313.15 K, x1 = 0.8019	–	983.97 ± 4	5.363 ± 0.22
313.15 K, x1 = 0.8984	–	981.34 ± 4	4.756 ± 0.2
313.15 K, x1 = 1	–	979.46 ± 4	4.358 ± 0.18

[2]
Settings	refractive index
x1 = 0.0511	1.3973 ± 0.0011
x1 = 0.0991	1.4278 ± 0.0006
x1 = 0.207	1.4589 ± 0.0006
x1 = 0.3005	1.4722 ± 0.0005
x1 = 0.3834	1.4787 ± 0.0005
x1 = 0.4978	1.485 ± 0.0005
x1 = 0.6356	1.4889 ± 0.0006
x1 = 0.8019	1.4922 ± 0.0006
x1 = 0.8984	1.4923 ± 0.0006
x1 = 1	1.4943 ± 0.0006
